Experimental data from publication PMC5047949, “Kinetic analysis of the translocator protein positron emission tomography ligand [^18F]GE-180 in the human brain” (European Journal of Nuclear Medicine and Molecular Imaging, 2016).

How the values were obtained:
[1] = tested on: translocator protein (TSPO); assay: Dynamic [^18F]GE-180 brain PET with arterial input; 1TC, 2TC and Logan kinetic modelling; format: in vivo, human; details: for Distribution volume ratio: cortical grey matter pseudoreference, median (IQR); for K1 / VT / k2 / k3 / k4: median (interquartile range)
Protocol: PET studies were performed on a Biograph 6 (six-slice CT) scanner after administration of 182 ± 3.1 MBq via intravenous bolus injection over 10 s followed by a 10-mL saline flush. A low-dose CT scan preceded the PET acquisition to allow correction for tissue attenuation. Emission data were then acquired over 90 min in list mode and reconstructed as 24 temporal frames (6 × 15, 3 × 60, 5 × 120, 5 × 300, 5 × 600 s) using filtered back-projection (matrix size 168 × 168, zoom 2.6, 5-mm gaussian filter, pixel size 1.56 × 1.56, slice thickness 3 mm) with and without attenuation correction. Standard corrections for scatter, decay and random counts were applied.
We used the PET data analysis and kinetic modelling toolkit, MIAKAT™ (www.miakat.org), which incorporates software from SPM5 (Wellcome Trust Centre for Neuroimaging) and FSL (FMRIB, University of Oxford). The brain was initially extracted from the T1-weighted MR images. The CIC neuroanatomical atlas was nonlinearly registered to the individual’s extracted brain in order to generate a personalized set of anatomically parcellated regions. Frame-by-frame motion correction of the dynamic (without attenuation correction) PET data was performed using mutual information coregistration of the individual frames to a reference frame. An average motion-corrected PET image was generated and used for coregistration with the T1-weighted MR image. Finally, regional tissue time–activity curves (TACs) were generated for each region of interest (ROI) defined from the CIC atlas that had been transformed into each individual’s image space.
Datasets were analysed with a one-tissue compartment (1TC) model and a two-tissue compartment (2TC) model and the Logan graphical method, using the metabolite-corrected plasma input function as previously described with a fixed 5 % blood volume correction. The primary outcome measures were the radioligand delivery rate constant (K1; mL cm^−3 min^−1), total distribution volume (VT: mL cm^−3), and standardized uptake values (SUV). The SUV ratio (SUVR) and distribution volume ratio (DVR) were estimated using the cortical grey matter as a pseudo reference region.
To investigate the stability of VT over different scan durations, a time stability analysis was performed by analysing data for total time windows that ranged between 40 and 90 min in 10-min increments.

[2] = Arterial whole-blood and plasma activity, and parent fraction by HPLC; format: in vivo, human
Protocol: Arterial blood activity was measured every second for the first 15 min of the 90-min scan using an automated blood sampling system (ABSS Allog, Mariefred, Sweden) connected to the subject via a 1.5 m × 1.0 mm diameter polytetrafluoroethylene line (blood withdrawal rate 2.5 ml/min). In addition, blood samples (10 mL) were collected manually from the radial artery at 0, 5, 10, 15, 30, 50, 70 and 90 min to assay whole-blood and plasma activity. Plasma was obtained by centrifugation for 3 min at 1,800 g. Activity in whole blood and plasma was measured in a CAPRAC-t well counter over 10 – 60 s. The first 15 min of continuous whole-blood activity was combined with the activity from discrete samples to generate the whole-blood activity curve for use in data modelling. The continuous plasma-to-blood ratio was estimated using a constant model and a total plasma activity curve was obtained by correcting the whole-blood curve for this partition between plasma and blood.
The parent fraction of [^18F]GE-180 was measured by high-performance liquid chromatography (Agilent 1,100 and 1,260 series) of discrete plasma samples (3.5 mL). The parent fraction was fitted to a single exponential plus a constant model. The total plasma activity was multiplied by this parent fraction and then smoothed post peak by fitting to a triexponential function to generate an arterial parent plasma input function. A delay correction of up to +30 s was applied to the input function prior to fitting the kinetic modelling. This was performed to account for delay in the 1.5-m tube (28.3 s) and delay between the radial artery and the brain.

[3] = Safety and tolerability after radioligand administration; format: in vivo, human
Text: With regard to correlations between age and the principal outcome measure, there were no significant correlations between age and VT in either HABs and MABs in any of the ROIs studied (Spearman’s rho = −0.3 – 0.7 p = 0.188 – 0.873 in HABs; Spearman’s rho = 0.1 – 0.8, p = 0.104 – 0.94 in MABs). There were also no significant relationships between age and outcome measures when added as a covariate in the repeated measures ANOVA. Demographic data are provided in Supplementary Table 1.

[4] = pH 7.4; preclinical work; cited from earlier work
[5] = humans; in vitro work, not measured in this study; cited from earlier work
[6] = parameters: method as in PMID 26072270; details: 60 min; earlier preclinical work; cited from earlier work
[7] = 2TC-fix model, across all regions and subjects
[8] = Logan graphical method, Cerebellum
[9] = Logan graphical method, Frontal lobe
[10] = Logan graphical method, Occipital lobe
[11] = Logan graphical method, Parietal lobe
[12] = Logan graphical method, Striatum
[13] = Logan graphical method, Temporal lobe
[14] = Logan graphical method, Thalamus

CCN(CC)C(=O)[C@H]1CCCc2c1c1c(OC)cccc1n2CC[18F] [[^18F]GE-180]
Distribution volume ratio ([1]; 1TC model, Cerebellum): 0.968 (0.91 – 1) | K1 ([1]; 1TC model, Cerebellum): 0.00656 (0.0054 – 0.0076) mL/min | VT ([1]; 1TC model, Cerebellum): 0.178 (0.16 – 0.22) mL/cm^3 | k2 ([1]; 1TC model, Cerebellum): 0.0339 (0.034 – 0.034) /min | Distribution volume ratio ([1]; 1TC model, Frontal lobe): 0.939 (0.94 – 0.95) | K1 ([1]; 1TC model, Frontal lobe): 0.00472 (0.0041 – 0.006) mL/min | VT ([1]; 1TC model, Frontal lobe): 0.171 (0.15 – 0.22) mL/cm^3 | k2 ([1]; 1TC model, Frontal lobe): 0.0271 (0.023 – 0.028) /min | Distribution volume ratio ([1]; 1TC model, Occipital lobe): 1.12 (1.1 – 1.2) | K1 ([1]; 1TC model, Occipital lobe): 0.00621 (0.0057 – 0.0074) mL/min | VT ([1]; 1TC model, Occipital lobe): 0.214 (0.19 – 0.25) mL/cm^3 | k2 ([1]; 1TC model, Occipital lobe): 0.03 (0.025 – 0.032) /min | Distribution volume ratio ([1]; 1TC model, Parietal lobe): 0.969 (0.96 – 1) | K1 ([1]; 1TC model, Parietal lobe): 0.00513 (0.004 – 0.0061) mL/min | VT ([1]; 1TC model, Parietal lobe): 0.19 (0.16 – 0.22) mL/cm^3 | k2 ([1]; 1TC model, Parietal lobe): 0.027 (0.024 – 0.028) /min | Distribution volume ratio ([1]; 1TC model, Striatum): 0.826 (0.78 – 0.89) | K1 ([1]; 1TC model, Striatum): 0.00358 (0.003 – 0.0046) mL/min | VT ([1]; 1TC model, Striatum): 0.155 (0.14 – 0.2) mL/cm^3 | k2 ([1]; 1TC model, Striatum): 0.0241 (0.021 – 0.025) /min | K1 ([1]; 1TC model, Temporal lobe): 0.00514 (0.0048 – 0.006) mL/min | VT ([1]; 1TC model, Temporal lobe): 0.182 (0.17 – 0.24) mL/cm^3 | k2 ([1]; 1TC model, Temporal lobe): 0.0266 (0.025 – 0.028) /min | Distribution volume ratio ([1]; 1TC model, Thalamus): 1.03 (0.96 – 1.1) | K1 ([1]; 1TC model, Thalamus): 0.00555 (0.0046 – 0.0058) mL/min | VT ([1]; 1TC model, Thalamus): 0.182 (0.17 – 0.24) mL/cm^3 | k2 ([1]; 1TC model, Thalamus): 0.0261 (0.024 – 0.028) /min | Distribution volume ratio ([1]; 2TC model, Cerebellum): 0.916 (0.69 – 0.98) | K1 ([1]; 2TC model, Cerebellum): 0.0224 (0.016 – 1.3) mL/min | VT ([1]; 2TC model, Cerebellum): 0.281 (0.25 – 0.33) mL/cm^3 | k2 ([1]; 2TC model, Cerebellum): 0.319 (0.23 – 78) /min | k3 ([1]; 2TC model, Cerebellum): 0.0331 (0.029 – 0.091) /min | k4 ([1]; 2TC model, Cerebellum): 0.0113 (0.0084 – 0.018) /min | Distribution volume ratio ([1]; 2TC model, Frontal lobe): 0.984 (0.96 – 1.2) | K1 ([1]; 2TC model, Frontal lobe): 0.0102 (0.0089 – 0.013) mL/min | VT ([1]; 2TC model, Frontal lobe): 0.346 (0.26 – 0.5) mL/cm^3 | k2 ([1]; 2TC model, Frontal lobe): 0.195 (0.15 – 1.6) /min | k3 ([1]; 2TC model, Frontal lobe): 0.0301 (0.024 – 0.15) /min | k4 ([1]; 2TC model, Frontal lobe): 0.00653 (0.004 – 0.017) /min | Distribution volume ratio ([1]; 2TC model, Occipital lobe): 1.07 (0.97 – 1.1) | K1 ([1]; 2TC model, Occipital lobe): 0.0238 (0.019 – 0.031) mL/min | VT ([1]; 2TC model, Occipital lobe): 0.35 (0.3 – 0.52) mL/cm^3 | k2 ([1]; 2TC model, Occipital lobe): 0.385 (0.2 – 0.62) /min | k3 ([1]; 2TC model, Occipital lobe): 0.0395 (0.036 – 0.054) /min | k4 ([1]; 2TC model, Occipital lobe): 0.0101 (0.0062 – 0.014) /min | Distribution volume ratio ([1]; 2TC model, Parietal lobe): 1.01 (0.98 – 1.1) | K1 ([1]; 2TC model, Parietal lobe): 0.0116 (0.011 – 0.014) mL/min | VT ([1]; 2TC model, Parietal lobe): 0.33 (0.31 – 0.42) mL/cm^3 | k2 ([1]; 2TC model, Parietal lobe): 0.192 (0.15 – 0.25) /min | k3 ([1]; 2TC model, Parietal lobe): 0.0334 (0.025 – 0.039) /min | k4 ([1]; 2TC model, Parietal lobe): 0.00873 (0.0045 – 0.014) /min | Distribution volume ratio ([1]; 2TC model, Striatum): 0.451 (0.41 – 0.71) | K1 ([1]; 2TC model, Striatum): 0.00413 (0.0033 – 0.0088) mL/min | VT ([1]; 2TC model, Striatum): 0.155 (0.14 – 0.22) mL/cm^3 | k2 ([1]; 2TC model, Striatum): 1.14 (0.66 – 1.7) /min | k3 ([1]; 2TC model, Striatum): 4.89 (0.62 – 9.1) /min | k4 ([1]; 2TC model, Striatum): 0.14 (0.027 – 0.21) /min | Distribution volume ratio ([1]; 2TC model, Temporal lobe): 0.958 (0.93 – 1) | K1 ([1]; 2TC model, Temporal lobe): 0.0143 (0.012 – 0.032) mL/min | VT ([1]; 2TC model, Temporal lobe): 0.306 (0.27 – 0.42) mL/cm^3 | k2 ([1]; 2TC model, Temporal lobe): 0.217 (0.16 – 1.3) /min | k3 ([1]; 2TC model, Temporal lobe): 0.0348 (0.03 – 0.15) /min | k4 ([1]; 2TC model, Temporal lobe): 0.00927 (0.0063 – 0.016) /min | Distribution volume ratio ([1]; 2TC model, Thalamus): 0.922 (0.81 – 1.1) | K1 ([1]; 2TC model, Thalamus): 0.0118 (0.011 – 0.014) mL/min | VT ([1]; 2TC model, Thalamus): 0.376 (0.28 – 0.41) mL/cm^3 | k2 ([1]; 2TC model, Thalamus): 0.16 (0.14 – 0.2) /min | k3 ([1]; 2TC model, Thalamus): 0.0315 (0.026 – 0.042) /min | k4 ([1]; 2TC model, Thalamus): 0.00881 (0.0062 – 0.012) /min | average regional delivery rate constant (K1) ([1]; 2TC model, healthy subjects): 0.01 mL cm^−3 min^−1 | K1, average [1, 7]: 0.013 mL cm^−3 min^−1 | VT, average [1, 7]: 0.311 mL cm^−3 | k2, average [1, 7]: 0.229 min⁻¹ | k3, average [1, 7]: 0.035 min⁻¹ | k4, average [1, 7]: 0.010 min⁻¹ | Distribution volume ratio [1, 8]: 0.99 (0.91 – 1) | VT [1, 8]: 0.29 (0.24 – 0.3) mL/cm^3 | Distribution volume ratio [1, 9]: 0.931 (0.92 – 0.97) | VT [1, 9]: 0.265 (0.23 – 0.33) mL/cm^3 | Distribution volume ratio [1, 10]: 1.14 (1.1 – 1.2) | VT [1, 10]: 0.34 (0.3 – 0.39) mL/cm^3 | Distribution volume ratio [1, 11]: 0.996 (0.93 – 1) | VT [1, 11]: 0.284 (0.23 – 0.35) mL/cm^3 | Distribution volume ratio [1, 12]: 0.844 (0.7 – 0.92) | VT [1, 12]: 0.25 (0.21 – 0.29) mL/cm^3 | Distribution volume ratio [1, 13]: 1.01 (0.95 – 1.1) | VT [1, 13]: 0.312 (0.24 – 0.36) mL/cm^3 | Distribution volume ratio [1, 14]: 0.991 (0.98 – 1) | VT [1, 14]: 0.3 (0.26 – 0.31) mL/cm^3 | time of peak concentration in the brain ([1]; all subjects): around 1 min | extraction across the blood–brain barrier (first-pass extraction) ([1]; healthy subjects, from K1 of the 2TC model): approximately 1% | estimated median VT ([1]; striatum (lowest ROI), 2TC model): 0.16 mL cm^−3 | estimated median VT ([1]; thalamus (highest ROI), 2TC model): 0.38 mL cm^−3 | share of activity in a typical ROI that came from blood ([1]; tissue TAC minus whole-blood radioactivity curve): approximately 20% | intact parent tracer remaining ([2]; 90 min, plasma): 70% | time of peak concentration in plasma ([2]; arterial plasma after i.v. bolus): about 45 s | plasma-to-blood ratio ([2]; constant across subjects): about 1.69 | polar radioactive metabolites (three) in plasma ([2]; over the 90 min scanning window): < 10 % of parent compound | safety of tracer administration ([3]; healthy subjects): safe | pharmacological effects after injection ([3]; patient reports, blood pressure, pulse, respiration rate, oxygen saturation): no pharmacological effects | logD [4]: 2.95 | plasma free fraction [5]: approximately 3% | parent in the brain [6]: 94%
